From the Kinase Knowledgebase extract (Sharma et al. 2016)

molecular target: MAPK14 (human) (UniProt Q16539); assay: Inhibition of MAPK14 Kinase Activity
Sequence (Q16539 whole entry, looked up): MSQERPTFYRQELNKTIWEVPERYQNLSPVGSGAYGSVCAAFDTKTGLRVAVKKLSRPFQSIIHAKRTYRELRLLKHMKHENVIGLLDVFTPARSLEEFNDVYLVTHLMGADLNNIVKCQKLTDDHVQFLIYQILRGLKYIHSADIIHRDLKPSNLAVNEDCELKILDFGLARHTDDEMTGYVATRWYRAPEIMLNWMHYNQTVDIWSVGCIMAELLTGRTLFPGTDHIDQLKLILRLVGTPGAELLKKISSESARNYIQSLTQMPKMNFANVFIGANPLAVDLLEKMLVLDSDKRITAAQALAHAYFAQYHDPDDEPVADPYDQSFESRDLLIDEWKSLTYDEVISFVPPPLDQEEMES

Row | SMILES | IC50 [nM]
1 | C[C@@H](Nc1sc2c(ccc(=O)n2-c2ccccc2)c1C(=O)c1ccccc1)C(N)=O | < 2000
2 | Nc1sc2c(ccc(=O)n2-c2ccccc2)c1C(=O)c1cccc(C(F)(F)F)c1 | < 2000
3 | N[C@H]1CCN(C(=O)Nc2sc3c(ccc(=O)n3-c3ccccc3)c2C(=O)c2ccccc2)C1 | < 2000
4 | Cc1cc(C(=O)c2c(N)sc3c2ccc(=O)n3-c2ccc(F)cc2)ccc1F | < 2000
5 | Cc1cccc(C(=O)c2csc3c2ccc(=O)n3-c2ccccc2)c1 | < 2000
6 | CN1CCC(C(=O)Nc2sc3c(ccc(=O)n3-c3ccccc3Cl)c2C(=O)c2ccccc2)CC1 | < 2000
7 | O=C(c1ccccc1)c1c(NCCN2CCCC2)sc2c1ccc(=O)n2-c1ccccc1 | < 2000
8 | Nc1sc2c(ccc(=O)n2-c2ccccc2)c1C(=O)c1ccc(F)cc1F | < 2000
9 | Cc1cccc(C(=O)c2c(N3CCC3)sc3c2ccc(=O)n3-c2ccccc2)c1 | < 2000
10 | Cc1cc(C(=O)c2c(NC(=O)C3CCN(C)CC3)sc3c2ccc(=O)n3-c2c(F)cccc2F)ccc1F | < 2000
11 | CN1CCC(Nc2sc3c(ccc(=O)n3-c3ccc(F)cc3)c2C(=O)c2ccccc2)CC1 | < 2000
12 | CCOC(=O)c1sc2c(ccc(=O)n2-c2ccccc2)c1C(=O)c1ccc(F)c(C)c1 | < 2000
13 | O=C(c1ccccc1)c1c(NCC2CNC2)sc2c1ccc(=O)n2-c1ccccc1 | < 2000
14 | CCOC(=O)c1sc2c(ccc(=O)n2-c2ccccc2)c1C(=O)c1ccccc1 | < 2000
15 | CCOC(=O)c1sc2c(ccc(=O)n2CC2CC2)c1C(=O)c1ccccc1 | < 2000
16 | CC(C)N1CCC(Nc2sc3c(ccc(=O)n3-c3ccccc3)c2C(=O)c2ccccc2)C1 (centres undefined) | < 2000
17 | Cc1cccc(C(=O)c2c(N[C@H]3CCNC3)sc3c2ccc(=O)n3-c2ccccc2)c1 | < 2000
18 | CC(=O)Nc1sc2c(ccc(=O)n2-c2ccccc2)c1C(=O)c1cccc(Cl)c1 | < 2000
19 | CCN1CC(Nc2sc3c(ccc(=O)n3-c3ccccc3)c2C(=O)c2ccccc2)C1 | < 2000
20 | Nc1sc2c(ccc(=O)n2-c2ccccc2)c1C(=O)c1ccccc1F | < 2000
21 | N#Cc1ccc(C(=O)c2c(N)sc3c2ccc(=O)n3-c2ccccc2)cc1 | < 2000
22 | CC(C)(C)OC(=O)Nc1sc2c(ccc(=O)n2-c2ccccc2)c1C(=O)c1ccccc1 | < 2000
23 | COc1cccc(C(=O)c2c(NC3CCN(C)CC3)sc3c2ccc(=O)n3-c2ccccc2)c1 | < 2000
24 | CC(C)(CO)NC(=O)c1sc2c(ccc(=O)n2-c2ccccc2)c1C(=O)c1ccccc1 | < 2000
25 | Cc1cc(C(=O)c2c(NC(=O)NC(C)(C)CO)sc3c2ccc(=O)n3CC2CC2)ccc1F | < 2000

Row | SMILES | IC50 [nM]
26 | Nc1sc2c(ccc(=O)n2-c2ccccc2)c1C(=O)c1cccs1 | < 2000
27 | O=C(c1ccccc1)c1c(N2CC[C@@H](O)C2)sc2c1ccc(=O)n2-c1ccccc1 | < 2000
28 | O=C(O)c1sc2c(ccc(=O)n2-c2ccccc2)c1C(=O)c1ccccc1 | < 2000
29 | Cc1cc(C(=O)c2c(NC3CCN(C)CC3)sc3c2ccc(=O)n3-c2c(F)cccc2F)ccc1F | < 2000
30 | COc1ccc(C(=O)c2c(N)sc3c2ccc(=O)n3-c2ccccc2)cc1 | < 2000
31 | O=C(c1ccccc1)c1c(NC2CCNCC2)sc2c1ccc(=O)n2-c1ccccc1 | < 2000
32 | CN1CC[C@H](NC(=O)Nc2sc3c(ccc(=O)n3-c3ccccc3)c2C(=O)c2ccccc2)C1 | < 2000
33 | Cc1ccc(-n2c(=O)ccc3c(C(=O)c4ccccc4)c(N)sc32)cc1 | < 2000
34 | Nc1sc2c(ccc(=O)n2-c2ccccc2)c1C(=O)c1cccc(OC(F)(F)F)c1 | < 2000
35 | Cc1cccc(C(=O)c2c(NC(=O)NNS(C)(=O)=O)sc3c2ccc(=O)n3-c2ccccc2)c1 | < 2000
36 | Nc1sc2c(ccc(=O)n2-c2ccccc2)c1C(=O)c1cccc(OC(F)F)c1 | < 2000
37 | NC(=O)c1sc2c(ccc(=O)n2-c2ccccc2)c1C(=O)c1ccccc1 | < 2000
38 | Cc1cc(C(=O)c2c(NC3CNC3)sc3c2ccc(=O)n3CC2CC2)ccc1F | < 2000
39 | Nc1sc2c(ccc(=O)n2-c2ccccc2)c1C(=O)c1ccc(Cl)cc1 | < 2000
40 | O=C(c1ccccc1)c1c(C(=O)N2CCC[C@H]2CO)sc2c1ccc(=O)n2-c1ccccc1 | < 2000
41 | N[C@H]1CC[C@H](Nc2sc3c(ccc(=O)n3-c3ccccc3)c2C(=O)c2ccccc2)CC1 | < 2000
42 | Cc1cc(C(=O)c2c(NC(=O)C3CCNCC3)sc3c2ccc(=O)n3-c2ccccc2)ccc1F | < 2000
43 | O=C(c1ccccc1)c1c(C(=O)N2CCOCC2)sc2c1ccc(=O)n2-c1ccccc1 | < 2000
44 | O=C(c1ccccc1)c1c(NC(=O)N2CC[C@@H](O)C2)sc2c1ccc(=O)n2-c1ccccc1 | < 2000
45 | CC(=O)Nc1sc2c(ccc(=O)n2-c2ccccc2)c1C(=O)c1cccs1 | < 2000
46 | Cc1cc(C(=O)c2c(NC3CN(C)C3)sc3c2ccc(=O)n3CC2CC2)ccc1F | < 2000
47 | NC(=O)CCNc1sc2c(ccc(=O)n2-c2ccccc2)c1C(=O)c1ccccc1 | < 2000
48 | CS(=O)(=O)Nc1sc2c(ccc(=O)n2-c2ccccc2)c1C(=O)c1ccccc1 | < 2000
49 | CN(C)CC(C)(C)CNc1sc2c(ccc(=O)n2-c2ccccc2)c1C(=O)c1ccccc1 | < 2000
